Counter-ions that a name gives are not always drawn.
What was measured:
CYP3A4 = CYP3A4 (Homo sapiens (Human), UniProt P08684); test: CYP inhibition in human liver microsomes, CYP3A4; type: in vitro ADME; conditions: for inhibition at 10 min, 10 µM: both sexes, human, pooled human liver microsomes, pH 7.4, probe midazolam (2 μM), HLM, midazolam substrate, read-out: CYP 3A4 % Inhibition at 10 μM
CYP1A2 = CYP1A2 (Homo sapiens (Human), UniProt P05177); test: CYP inhibition in human liver microsomes, CYP1A2; type: in vitro ADME; conditions: for inhibition at 10 min, 10 µM: both sexes, human, pooled human liver microsomes, pH 7.4, probe phenacetin (10 μM), HLM, phenacetin substrate, read-out: CYP 1A2 % Inhibition at 10 μM
Procedure: HLM Incubations. Pooled HLM from adult male and female donors (Corning 452117) were used. Microsomal incubations were carried out in multi-well plates. Liver microsomal incubation aliquots contained 1) PBS (100 mM, pH 7.4), MgCl2 (3.3 mM), and NADPH (1 mM); 2) liver microsomal protein (0.2 mg/mL); 3) the reference CYP substrates: phenacetin for CYP1A2 (10 μM), diclofenac for CYP2C9 (5 μM), (S)-mephenytoin for CYP2C19 (30 μM), dextromethorphan for CYP2D6 (5 μM), and midazolam for CYP3A4 (2 μM); and 4) test compounds (10 μM), control inhibitors (3 μM α-naphthoflavone for CYP1A2, 3 μM sulfaphenazole for CYP2C9, 1 μM (+)-N-3-benzylnirvanol for 2C19, 3 μM quinidine for CYP2D6, or 3 μM ketoconazole for CYP3A4), or solvent (for uninhibited condition). Incubations were carried out at 37° C. with constant shaking for 10 minutes.
Sample Analysis. […] Percent inhibition by test compounds or control inhibitors was calculated by comparing the metabolite formation in the presence of the inhibitor compared to the metabolite formation in the absence of the inhibitor.

[1] = Pharmacokinetics in rats, brain; type: in vivo, Sprague Dawley rats; conditions: rat brain, SC; for Cmax / Tmax / half-life: male, Sprague Dawley
Procedure: Animals. Male Sprague Dawley rats, aged 8-12 weeks, were used in these studies. Four rats were housed in each cage. Temperature and humidity were maintained at 22±3° C. and 30-70%, respectively, and illumination was controlled to give a 12 h light and 12 h dark cycle. Temperature and humidity were recorded by an auto-controlled data logger system. All animals were provided laboratory rodent diet and were fasted for 4 h pre-dose and 2 h post-dose. Reverse osmosis water treated with ultraviolet light was provided ad libitum. Animals were randomly assigned to treatment groups.
Drugs. Compounds 4 and 5 were prepared as described above. Compound 6 was commercially obtained. Test compounds were used as the hydrogen fumarate (6) or hydrochloride (4 and 5) salts and were dissolved in a vehicle consisting of normal saline. They were then administered subcutaneously (SC) at a dose of 1 or 10 mg/kg (calculated based on the free base) and at a volume of 5 mL/kg body weight.
Sample Collection and Bioanalysis. Blood samples (approximately 120 μL) were collected under light isoflurane anesthesia (Surgivet®) from the retro orbital plexus at 0.08, 0.25, 0.5, 1, 2, 4, 8, and 24 h (4 animals per time point). Immediately after blood collection, plasma was harvested by centrifugation at 4,000 rpm for 10 min at 4° C. and samples were stored at −70±10° C. until bioanalysis. Following blood collection, animals were immediately sacrificed, the abdominal vena-cava was cut open, and the whole body was perfused from the heart using 10 mL of normal saline, and brain samples were collected from all animals. After isolation, brain samples were rinsed three times in ice-cold normal saline (for 5-10 seconds/rinse using ˜5-10 mL normal saline in disposable petri dish for each rinse) and dried on blotting paper. Brain samples were homogenized using ice-cold phosphate-buffered saline (pH 7.4). Total homogenate volume was three times the tissue weight. All homogenates were stored at −70±10° C. until bioanalysis. For bioanalysis, 25 μL aliquots of plasma/brain study samples or spiked plasma/brain calibration standards were added to individual pre-labeled micro-centrifuge tubes followed by 100 μL of an internal standard solution (glipizide, 500 ng/ml in acetonitrile) except for blanks, where 100 μL of acetonitrile was added. Samples were vortexed for 5 minutes and then centrifuged for 10 minutes at 4,000 rpm at 4° C. Following centrifugation, 100 μL of each clear supernatant was transferred to a 96 well plate and analyzed with a fit-for-purpose LC-MS/MS method, with authentic samples of each analyte used for calibration and identification.
Data Analysis. Pharmacokinetic parameters were estimated using the non-compartmental analysis tool of Phoenix® WinNonlin software (Ver 8.0).

C57BL/6 mice = test: Marble burying test (MBT) in mice; type: in vivo; conditions: SC, 30 minutes prior, 30-minute period, vs. vehicle
Procedure: Animals. Adult male C57BL/6 mice, aged 8-10 weeks (body weight 20-25 g), were used in these experiments. Animals were housed under controlled temperatures and 12-hour light/dark cycles (lights on between 07:00-19:00 h), with ad libitum food and water. All efforts were made to minimize suffering.
Drugs and Drug Administration. Compound 4 was prepared as described above. Desipramine HCl was commercially obtained. The test compound, vehicle, and the positive control desipramine were administered subcutaneously (SC), with doses calculated based on the freebase. Normal saline was used as the vehicle. All compounds were administered at a volume of 10 ml/kg. All treatments were administered 30 minutes prior to the start of behavioral testing. Group size was n=9-10 per treatment.
Marble Burying Test (MBT). […] Mice were handled for about 2 min daily for the 3 days prior to the beginning of the experimental procedure. Twenty glass marbles (16 mm diameter) were placed at equal distances in a 5×4 pattern on a 5-cm layer of corn-cob bedding, with marbles at least 2 cm from the borders of the cage. The total number of marbles buried were counted in three 10-minute time bins (total 30 minutes). A marble was considered buried when it was >⅔ covered by bedding material.
Statistical Analysis. The data points shown are the mean ±standard error of the mean (SEM). Analysis was performed using GraphPad Prism 6. […]

Chain of CYP1A2 (P05177 whole entry, looked up): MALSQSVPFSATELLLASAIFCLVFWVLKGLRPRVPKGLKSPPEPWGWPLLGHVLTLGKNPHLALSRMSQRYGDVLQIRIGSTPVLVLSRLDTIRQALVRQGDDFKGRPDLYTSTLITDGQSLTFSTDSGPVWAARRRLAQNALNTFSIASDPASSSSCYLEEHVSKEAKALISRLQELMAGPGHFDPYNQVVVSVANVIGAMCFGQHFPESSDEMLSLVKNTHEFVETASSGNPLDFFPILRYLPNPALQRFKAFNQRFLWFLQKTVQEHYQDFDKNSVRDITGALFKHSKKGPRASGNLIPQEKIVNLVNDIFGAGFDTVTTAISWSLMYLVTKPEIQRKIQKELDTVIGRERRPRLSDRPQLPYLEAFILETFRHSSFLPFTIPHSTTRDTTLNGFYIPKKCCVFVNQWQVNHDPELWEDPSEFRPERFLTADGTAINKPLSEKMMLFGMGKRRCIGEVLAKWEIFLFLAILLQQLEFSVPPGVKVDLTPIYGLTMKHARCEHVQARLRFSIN
Chain of CYP3A4 (P08684 whole entry, looked up): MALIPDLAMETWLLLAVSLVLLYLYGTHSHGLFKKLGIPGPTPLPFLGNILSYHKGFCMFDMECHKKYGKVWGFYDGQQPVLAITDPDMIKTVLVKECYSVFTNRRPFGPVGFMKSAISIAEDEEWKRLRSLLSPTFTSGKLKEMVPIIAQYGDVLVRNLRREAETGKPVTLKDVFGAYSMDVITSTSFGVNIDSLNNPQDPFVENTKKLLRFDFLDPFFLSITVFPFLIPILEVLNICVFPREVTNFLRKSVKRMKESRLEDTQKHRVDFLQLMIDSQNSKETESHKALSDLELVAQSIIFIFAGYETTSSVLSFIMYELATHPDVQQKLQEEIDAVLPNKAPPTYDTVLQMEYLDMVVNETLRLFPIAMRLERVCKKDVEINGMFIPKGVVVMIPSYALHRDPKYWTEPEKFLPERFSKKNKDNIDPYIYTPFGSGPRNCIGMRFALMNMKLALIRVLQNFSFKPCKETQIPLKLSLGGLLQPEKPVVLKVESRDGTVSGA

| SMILES | IC50 (CYP3A4) [µM] | IC50 (CYP1A2) [µM] | Cmax ([1]; 1 mg/kg) [ng/g] | Tmax ([1]; 1 mg/kg) [min] | half-life ([1]; 1 mg/kg) [min] | Cmax ([1]; 10 mg/kg) [ng/g] | Tmax ([1]; 10 mg/kg) [min] | half-life ([1]; 10 mg/kg) [min] | AUC0-last ([1]; 1 mg/kg) [ng·h/g] | AUC0-last ([1]; 10 mg/kg) | number of marbles buried (C57BL/6 mice) | inhibition at 10 min, 10 µM (CYP3A4) [%] | inhibition at 10 min, 10 µM (CYP1A2) [%] |
| --- | --- | --- | --- | --- | --- | --- | --- | --- | --- | --- | --- | --- | --- |
| CCN(C)CCc1c[nH]c2ccc(F)cc12 [Compound 4, N-ethyl-2-(5-fluoro-1H-indol-3-yl)-N-methylethan-1-amine hydrochloride] | > 50 | > 50 | 188 | 15 | 23.4 | 2480 | 60 | 31.2 | 197.70 | 4,710.96 h*ng/g | dose-dependent reduction |  |  |
| CCN(C)CCc1c[nH]c2ccccc12 [Compound 2, methylethyltryptamine] | > 50 | > 50 |  |  |  |  |  |  |  |  |  | 0 | 0.5 |
| CCCN(CC)CCc1c[nH]c2ccc(F)cc12 [Compound 3, N-ethyl-N-(2-(5-fluoro-1H-indol-3-yl)ethyl) propan-1-amine hydrochloride] | > 50 | 8.4 |  |  |  |  |  |  |  |  |  |  |  |
| CN(C)CCc1c[nH]c2ccc(F)cc12 [Compound 5, 2-(5-fluoro-1H-indol-3-yl)-N,N-dimethylethan-1-amine hydrochloride] |  |  |  |  |  | 275 | 15 | 23.4 |  | 93.99 ng·h/g |  |  |  |
| CCN(C)CCc1c[nH]c2cccc(O)c12 [Compound 6] | > 50 | > 50 |  |  |  | 6160 | 120 | 125 |  | 30,638.13 h*ng/g |  |  |  |
| CCCN(CC)CCc1c[nH]c2ccccc12 [Compound 1, ethylpropyltryptamine] |  |  |  |  |  |  |  |  |  |  |  | 2 | 37.1 |

— US20240317683A1, “METHODS OF TREATING MOOD DISORDERS” (priority 2020, published 2024)
